From patent US6432988B1, “2-arylalkylthio -imidazoles, 2-arylalkenyl -thio -imidazoles and 2-arylalkinyl -thio -imidazoles as anti -inflammatory substances and substances inhibiting the release of cytokine” (Merckle GmbH, priority 1998, dated 2002)

Legend:
[1] = test system: TNF-α; assay: Inhibition of LPS-stimulated cytokine secretion in human PBMC (TNF-α); type: cell-based; settings: LPS 1 μg/ml, 24 h, read-out: TNFα, PBMC (IC50 values)
Procedure: (§1) Test System for Determining the Inhibition of LPS-stimulated Cytokine Secretion (TNF-α, IL-1β)
(§2) Human PBMC (peripheral blood mononuclear cells) are preincubated with test substance for 5 min at 37° C., then stimulated with LPS (1 μg/ml) for 24 h at 37° C. The cytokines TNF-α, IL-1β, IL-6 and IL-8 are Determined by means of ELISA (see Blood 75, 40-47 (1990)).

[2] = test system: IL-1β; assay: Inhibition of LPS-stimulated cytokine secretion in whole blood (IL-1β); type: cell-based; settings: human whole blood, LPS 1 μg/ml, 4 h; read-out: IL-1β, Whole blood method (IC50 values)
Procedure: (§3) Test System for Determining the Inhibition of LPS-stimulated Cytokine Secretion (TNF-α, IL-1β) in Whole Blood
(§4) Fresh, human whole blood from healthy donors is preincubated with test substance for 25 min at 37° C. The cells are stimulated with LPS (1 μg/ml) for 4 h at 37° C. In the plasma supernatant which is isolated by centrifugation, the cytokines TNF-α, IL-1β, IL-6 and IL-8 are quantified by means of ELISA (see Inflamm. Res. 44, 269-274 (1995)).

[3] = target: T1, Cyclooxygenase-2 (COX-2) (Ovis aries, UniProt P79208); assay: Inhibition of cyclooxygenase-2: COX-2 from sheep placenta, arachidonic acid, PGE2 by ELISA; type: biochemical; settings: arachidonic acid 5 μm
T1 construct: COX-2 (from sheep placenta) is preincubated with test substance for 10 min at 4° C; from tissue; host or cells: sheep placenta
T1 sequence (P79208 17-603): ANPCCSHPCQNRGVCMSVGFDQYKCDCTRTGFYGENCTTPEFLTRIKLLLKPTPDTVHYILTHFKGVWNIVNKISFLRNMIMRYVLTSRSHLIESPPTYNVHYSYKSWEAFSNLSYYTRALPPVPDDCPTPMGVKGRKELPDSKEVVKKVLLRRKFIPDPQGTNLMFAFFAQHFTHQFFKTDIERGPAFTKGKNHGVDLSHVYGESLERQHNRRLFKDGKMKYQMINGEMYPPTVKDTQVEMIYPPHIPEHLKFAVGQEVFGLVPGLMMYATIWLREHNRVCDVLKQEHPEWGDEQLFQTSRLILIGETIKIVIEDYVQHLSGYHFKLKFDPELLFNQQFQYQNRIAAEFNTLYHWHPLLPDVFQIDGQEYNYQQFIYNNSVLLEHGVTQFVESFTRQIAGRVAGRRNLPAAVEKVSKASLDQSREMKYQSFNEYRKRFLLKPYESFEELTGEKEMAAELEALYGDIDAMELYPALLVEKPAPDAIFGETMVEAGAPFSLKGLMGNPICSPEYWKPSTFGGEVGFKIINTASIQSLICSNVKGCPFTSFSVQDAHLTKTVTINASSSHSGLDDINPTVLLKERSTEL
Procedure: Test System for Determining the Inhibition of Cyclooxygenase-2 (COX-2)
COX-2 (from sheep placenta) is preincubated with test substance for 10 min at 4° C., then stimulated with arachidonic acid (5 μm) at 25° C. for 10 min. […] Determination is carried out 3 dilutions (10^−7, 10^−6, 10^−5 molar). The PGE2 concentrations are quantified by means of ELISA (see Mitchell J. A. et al. Proc. Nat. Acad. Sci 90: 11693-11697 (1993)).

[4] = target: T2, 5-lipoxygenase (5-LO) (Homo sapiens, UniProt P09917); assay: Inhibition of 5-lipoxygenase: LTB4 formation in human granulocytes stimulated with calcium ionophore A 23187, ELISA; type: cell-based; settings: A 23187, LTB4 ELISA
T2 construct: The source used for the 5-lipoxygenase is human granulocytes; endogenous in cells; host or cells: human granulocytes isolated from heparinised blood
T2 sequence (P09917 1-674): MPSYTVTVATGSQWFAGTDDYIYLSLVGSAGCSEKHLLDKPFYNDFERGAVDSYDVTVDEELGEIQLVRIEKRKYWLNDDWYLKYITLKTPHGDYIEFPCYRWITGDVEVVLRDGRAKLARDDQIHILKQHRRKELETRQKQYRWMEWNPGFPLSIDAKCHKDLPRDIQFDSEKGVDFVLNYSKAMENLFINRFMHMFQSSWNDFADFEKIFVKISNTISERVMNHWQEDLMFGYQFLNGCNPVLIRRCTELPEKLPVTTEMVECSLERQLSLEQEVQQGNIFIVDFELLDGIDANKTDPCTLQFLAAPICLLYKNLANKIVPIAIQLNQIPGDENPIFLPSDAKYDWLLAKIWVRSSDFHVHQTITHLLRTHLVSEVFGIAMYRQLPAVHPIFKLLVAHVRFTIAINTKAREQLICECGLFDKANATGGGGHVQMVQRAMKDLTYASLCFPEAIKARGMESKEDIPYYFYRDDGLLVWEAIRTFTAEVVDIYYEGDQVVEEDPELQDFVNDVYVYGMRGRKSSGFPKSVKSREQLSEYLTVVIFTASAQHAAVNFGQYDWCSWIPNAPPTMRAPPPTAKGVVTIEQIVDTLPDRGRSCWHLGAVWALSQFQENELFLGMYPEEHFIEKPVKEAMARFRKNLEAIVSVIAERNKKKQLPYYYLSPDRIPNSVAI
Procedure: Test System for Determining the Inhibition of 5-lipoxygenase (5-LO)
The source used for the 5-lipoxygenase is human granulocytes. By stimulation with calcium ionophore A 23187, LTB4 (leukotriene B4) is formed from endogenous arachidonic acid. The granulocytes are isolated and the enzyme reaction is carried out according to known processes (see Arch. Pharm. Pharm. Med. Chem. 330, 307-312 (1997)).
The blood protected from clotting by heparin is centrifuged on a discontinuous Percoll® gradient and the granulocyte layer is removed by pipette. After lysis of the erythrocytes, the granulocytes are washed a number of times and then adjusted to a specific cell count. The enzyme reaction is then started in the presence or absence of the test substance after addition of Ca^2+ using calcium ionophore A 23187. The synthesis of the leukotrienes is stopped after 1.5 minutes. The samples are centrifuged off and the supernatant is diluted. LTB4 is determined quantitatively by means of ELISA.

[5] = target: T3, Cyclooxygenase-1 (COX-1) (Homo sapiens, UniProt P23219); assay: Inhibition of cyclooxygenase-1: prostaglandin E2 formed by human platelets after calcium ionophore, ELISA; type: cell-based; settings: PGE2 ELISA
T3 construct: endogenous in cells; host or cells: human platelets
T3 sequence (P23219 24-599): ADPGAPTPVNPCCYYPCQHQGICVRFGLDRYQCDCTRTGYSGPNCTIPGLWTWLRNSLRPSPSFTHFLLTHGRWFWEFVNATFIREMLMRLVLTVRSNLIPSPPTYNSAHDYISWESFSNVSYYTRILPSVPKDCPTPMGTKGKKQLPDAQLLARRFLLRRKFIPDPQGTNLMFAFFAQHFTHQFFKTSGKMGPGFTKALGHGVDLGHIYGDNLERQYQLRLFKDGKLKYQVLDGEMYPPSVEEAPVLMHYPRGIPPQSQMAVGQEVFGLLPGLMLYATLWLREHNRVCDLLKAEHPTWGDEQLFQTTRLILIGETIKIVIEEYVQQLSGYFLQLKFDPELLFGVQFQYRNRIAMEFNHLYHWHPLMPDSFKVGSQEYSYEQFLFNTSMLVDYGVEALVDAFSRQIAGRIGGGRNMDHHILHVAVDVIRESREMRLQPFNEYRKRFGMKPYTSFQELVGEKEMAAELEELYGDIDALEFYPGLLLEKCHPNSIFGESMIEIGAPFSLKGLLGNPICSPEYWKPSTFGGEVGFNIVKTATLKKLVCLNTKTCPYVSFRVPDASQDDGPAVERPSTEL
Procedure: Test System for Determining the Inhibition of Cyclooxygenase-1 (COX-1)
In this test system, the amount of prostaglandin E2 formed by human platelets after addition of calcium ionophore is determined by means of ELISA. The platelets are obtained here after centrifugation on a discontinuous Percoll® gradient. The enzyme reaction and the determination of the metabolites formed are in principle carried out as in the determination of the inhibition of 5-lipoxygenase. Differences exist with respect to the incubation time. Furthermore, the addition of a thromboxane synthase inhibitor is necessary (see Arch. Pharm. Pharm. Med. Chem. 330, 307-312 (1997)).

[6] = test system: TNF-α; assay: Inhibition of LPS-stimulated cytokine secretion in whole blood (TNF-α); type: cell-based; settings: human whole blood, LPS 1 μg/ml, 4 h; read-out: TNFα, Whole blood method (IC50 values)
Procedure: as §3, §4

[7] = test system: IL-1β; assay: Inhibition of LPS-stimulated cytokine secretion in human PBMC (IL-1β); type: cell-based; settings: LPS 1 μg/ml, 24 h
Procedure: as §1, §2

IC50 [1] [µM]	IC50 [2] [µM]	IC50 [3] [µM]	IC50 [4] [µM]	IC50 [5] [µM]	IC50 [6] [µM]	IC50 [7] [µM]	Compound
10	30	6.1	0.065	3.4	30	> 100	CSc1ccc(CSc2nc(-c3ccncc3)c(-c3ccc(F)cc3)[nH]2)cc1 [Example 1, 5-(4-Fluorophenyl)-2-[(4-methylthio)benzylthio]-4-(4-pyridyl)imidazole]
6.8	2.9	6.3	10		16	2.3	C[S+]([O-])c1ccc(CSc2nc(-c3ccncc3)c(-c3ccc(F)cc3)[nH]2)cc1 (stereo not shown) [Example 2, 5-(4-Fluorophenyl)-2-[(4-methylsulfinyl)benzylthio]-4-(4-pyridyl)imidazole]
4	1.2		0.8		19	> 100	CS(=O)(=O)c1ccc(CSc2nc(-c3ccncc3)c(-c3ccc(F)cc3)[nH]2)cc1 [Example 3, 5-(4-Fluorophenyl)-2-[(4-methylsulfonyl)benzylthio]-4-(4-pyridyl)imidazole]
3.3		7	0.085	2.2		9.3	NS(=O)(=O)c1ccc(CCSc2nc(-c3ccncc3)c(-c3ccc(F)cc3)[nH]2)cc1 [Example 4, 2-[2-(4-Aminosulfonylphenyl)ethylthio]-5-(4-fluorophenyl)-4-(4-pyridyl)imidazole]
3.1		10	2.8	0.038		18	NS(=O)(=O)c1ccc(CSc2nc(-c3ccncc3)c(-c3ccc(F)cc3)[nH]2)cc1 [Example 5, 2-[(4-Aminosulfonylphenyl)methylthio]-5-(4-fluorophenyl)-4-(4-pyridyl)imidazole]
6		3	< 0.01	6.5		58	CSc1ccc(CCSc2nc(-c3ccncc3)c(-c3ccc(F)cc3)[nH]2)cc1 [Example 6, 2-[2-(4-Methylthiophenyl)ethylthio]-5-(4-fluorophenyl)4-(4-pyridyl)imidazole]
14						21	CS(=O)(=O)c1ccc(CCSc2nc(-c3ccncc3)c(-c3ccc(F)cc3)[nH]2)cc1 [Example 7, 5-(4-Fluorophenyl)-2-[2-(4-methylsulfonylphenyl)ethylthio]-4-(4-pyridyl)imidazole]
	1.9				24		C[S+]([O-])c1cccc(CSc2nc(-c3ccncc3)c(-c3ccc(F)cc3)[nH]2)c1 (stereo not shown) [Example 9, 5-(4-Fluorophenyl)-2-[(3-methylsulfinylphenyl)methylthio]-4-(4-pyridyl)-1H-imidazole]
	4				48		C[S+]([O-])c1ccccc1CSc1nc(-c2ccncc2)c(-c2ccc(F)cc2)[nH]1 (stereo not shown) [Example 10, 5-(4-Fluorophenyl)-2-[(2-methylsulfinylphenyl)methylthio]-4-(4-pyridyl)-1H-imidazole]
	12.1				9		C[S+]([O-])c1cc(CSc2nc(-c3ccncc3)c(-c3ccc(F)cc3)[nH]2)ccc1O (stereo not shown) [Example 12, 5-(4-Fluorophenyl)-2-[(4-hydroxy-3-methylsulfinylphenyl)methylthio]-4-(4-pyridyl)-1H-imidazole]
4.2	13				76	0.64	C[S+]([O-])c1ccc(O)c(CSc2nc(-c3ccncc3)c(-c3ccc(F)cc3)[nH]2)c1 (stereo not shown) [Example 16, 2-[(2-Hydroxy-5-methylsulfinylphenyl)methylthio]-5-(4-fluorophenyl)-4-(4-pyridyl)-1H-imidazole]
						7.5	CS(=O)(=O)c1ccc(-c2nc(-c3ccc(F)cc3)c(-c3ccncc3)[nH]2)cc1 [Reference B, reference compound]
